The values that follow are results of earlier work, collected in US20020098247A1, “Methods and compositions for the improvement of insulin sensitivity, reduction of hyperglycemia, and reduction of hypercholesterolemia with chromium complexes and alpha lipoic acid” (priority 2000, published 2002).

In data set [1] the test system is isolated vasculature of diabetic rats.
For data set [2], the system named is patients with Type II diabetes. The note with it: 600 mg intravenously three weeks, then 6 months tid oral.
Data set [3] deals with patients with Type I and Type II diabetes.
Data set [4] concerns Patients with Type II diabetes with symptomatic polyneuropathy. The note with it: intravenous, three weeks.
The subject of data set [5] is patients with Type II diabetes. The note with it: 600 mg tid orally, three weeks.
For data set [6] the following is noted: rats, oral administration of CrCl3 with the NSAID.

Take `O=C(O)CCCCC1CCSS1` (stereo not drawn) [alpha-lipoic acid]: the “prevention of the deficit in acetylcholine-induced relaxation in isolated vasculature” value in data set [1] is on record as 94%. In addition, in data set [2], the “neuropathy as evidenced by the TSS vs placebo” value was “significantly lessened” and the “side effects between groups” value was “no significant differences”. Moreover, the “sensory nerve and tibial nerve conduction velocities” value in data set [3] (600 or 1,200 mg per day, intravenous five days then oral two years) is listed as “improvements”. For the same molecule, the “Neuropathy Disability Score values” in data set [3] (600 or 1,200 mg per day, two years) is on record as “not significantly affected”. Besides, in data set [3] (two-year study), the “incidence or severity of side effects vs placebo” value is “no significant differences”. In addition, in data set [4] (1,200 mg dose group vs other groups), the “frequency of adverse effects” value is “slightly greater rate of gastrointestinal side effects”. Moreover, the “decrease of Total Symptom Score (TSS) in the feet” value in data set [4] (two higher doses (600, 1,200 mg per day)) was “approximately 60%”. Besides, in data set [5], the “TSS in the feet and NDS scores” value was “improvements”; the “side effects vs placebo” value is recorded as “No significant differences”.
On to `CC(=O)Oc1ccccc1C(=O)O` [aspirin, acetylsalicylic acid], for which the chromium absorption entry in data set [6] is listed as “facilitated”.
